In patent US9517232B2, “Compounds for treatment of alzheimer's disease” (Medi Synergics, LLC, priority 2013, dated 2016) one finds Ki data, which are given here for two molecules.

For experiment [1], the target named is T1, Sigma1 (Homo sapiens, UniProt Q99720). To be noted: Data from Poster, CNS Summit (2013); cited from earlier work.
Experiment [2] concerns the target T2, M1 (Homo sapiens, UniProt P11229).
T2 sequence (P11229 1-460): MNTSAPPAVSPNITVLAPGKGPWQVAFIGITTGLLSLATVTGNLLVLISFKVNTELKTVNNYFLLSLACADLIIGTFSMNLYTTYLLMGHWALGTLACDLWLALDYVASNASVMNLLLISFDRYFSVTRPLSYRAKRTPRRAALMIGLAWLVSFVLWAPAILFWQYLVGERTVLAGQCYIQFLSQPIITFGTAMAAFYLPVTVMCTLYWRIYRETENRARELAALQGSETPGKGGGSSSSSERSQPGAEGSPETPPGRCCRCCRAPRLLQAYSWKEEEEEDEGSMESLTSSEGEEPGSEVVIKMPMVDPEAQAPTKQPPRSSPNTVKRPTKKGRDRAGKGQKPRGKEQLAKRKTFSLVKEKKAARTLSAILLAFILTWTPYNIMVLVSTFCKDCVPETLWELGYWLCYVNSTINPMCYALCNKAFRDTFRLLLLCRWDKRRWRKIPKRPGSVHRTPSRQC
Particulars: Data from Poster, CNS Summit (2013); cited from earlier work.

The target of experiment [3] is T3, M2 (Homo sapiens, UniProt P08172).
T3 sequence (P08172 1-466): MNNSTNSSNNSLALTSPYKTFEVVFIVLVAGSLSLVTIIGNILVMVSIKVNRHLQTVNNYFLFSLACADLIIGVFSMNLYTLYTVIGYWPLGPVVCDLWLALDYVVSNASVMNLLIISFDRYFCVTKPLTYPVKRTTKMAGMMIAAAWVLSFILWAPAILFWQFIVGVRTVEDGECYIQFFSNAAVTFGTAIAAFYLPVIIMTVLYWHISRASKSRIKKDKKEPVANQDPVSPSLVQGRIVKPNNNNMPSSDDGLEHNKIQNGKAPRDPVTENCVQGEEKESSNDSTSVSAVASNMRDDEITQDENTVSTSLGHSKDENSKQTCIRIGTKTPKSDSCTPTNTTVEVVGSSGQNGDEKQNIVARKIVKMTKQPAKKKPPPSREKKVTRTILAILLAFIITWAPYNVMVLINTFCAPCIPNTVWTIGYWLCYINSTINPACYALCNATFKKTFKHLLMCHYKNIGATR
Particulars: Data from Poster, CNS Summit (2013); cited from earlier work.

The target in a further experiment is M3 (Homo sapiens, UniProt P20309). To be noted: Data from Poster, CNS Summit (2013); cited from earlier work.
M3, sequence (P20309 whole entry): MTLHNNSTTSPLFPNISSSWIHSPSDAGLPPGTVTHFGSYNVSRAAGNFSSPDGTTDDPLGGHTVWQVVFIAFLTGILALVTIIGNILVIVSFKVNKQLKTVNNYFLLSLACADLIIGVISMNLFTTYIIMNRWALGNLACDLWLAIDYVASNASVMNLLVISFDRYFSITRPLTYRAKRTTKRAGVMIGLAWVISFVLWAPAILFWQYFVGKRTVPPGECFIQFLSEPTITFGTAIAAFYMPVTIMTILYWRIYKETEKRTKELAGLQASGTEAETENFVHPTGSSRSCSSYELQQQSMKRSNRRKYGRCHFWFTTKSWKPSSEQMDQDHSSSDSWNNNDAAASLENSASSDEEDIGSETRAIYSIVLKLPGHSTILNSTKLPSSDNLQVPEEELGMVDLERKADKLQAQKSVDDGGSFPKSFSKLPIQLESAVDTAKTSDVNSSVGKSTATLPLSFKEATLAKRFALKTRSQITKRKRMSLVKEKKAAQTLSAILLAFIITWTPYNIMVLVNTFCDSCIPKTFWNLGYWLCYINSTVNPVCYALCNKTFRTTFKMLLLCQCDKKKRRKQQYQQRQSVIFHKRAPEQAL
Another experiment addresses T4, M4 (Homo sapiens, UniProt P08173).
T4 sequence (P08173 1-479): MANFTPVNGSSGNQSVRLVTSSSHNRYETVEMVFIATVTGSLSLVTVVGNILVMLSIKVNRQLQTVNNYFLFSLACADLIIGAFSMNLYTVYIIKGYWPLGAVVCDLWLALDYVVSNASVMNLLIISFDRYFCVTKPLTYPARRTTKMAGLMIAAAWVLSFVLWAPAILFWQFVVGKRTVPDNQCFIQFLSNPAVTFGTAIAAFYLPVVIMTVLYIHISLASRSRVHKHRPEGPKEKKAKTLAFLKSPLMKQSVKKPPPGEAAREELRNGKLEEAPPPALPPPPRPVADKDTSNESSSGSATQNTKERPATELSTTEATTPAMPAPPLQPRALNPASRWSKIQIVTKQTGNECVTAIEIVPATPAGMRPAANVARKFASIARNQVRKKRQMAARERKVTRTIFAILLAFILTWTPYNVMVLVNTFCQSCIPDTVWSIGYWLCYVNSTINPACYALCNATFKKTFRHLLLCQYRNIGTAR
To be noted: Data from Poster, CNS Summit (2013); cited from earlier work.

Experiment [4] concerns the target T1, Sigma1. Put plainly: Sigma-1 receptor Ki determination (NIMH PDSP). It is filed as binding. The procedure:
(§1) The compounds from the above Examples were tested for Sigma-1 and muscarinic M1-M5) activities. Ki determinations were generously provided by the National Institute of Mental Health's Psychoactive Drug Screening Program (PDSP), Contract #HHSN-271-2013-00017-C (NIMH PDSP). The NIMH PDSP is directed by Bryan L. Roth M D, PhD at the University of North Carolina at Chapel Hill and Project Officer Jamie Driscoll at NIMH, Bethesda Md., USA. Procedures employed by the PDSP are described in the NIMH PDSP Assay Protocol Book, Version II and follow published literature protocols.

The target in experiment [5] is T2, M1. Put plainly: Muscarinic M1 receptor Ki determination (NIMH PDSP). It is filed as binding. The procedure: as §1
For experiment [6], the target named is T3, M2. Put plainly: Muscarinic M2 receptor Ki determination (NIMH PDSP). The format is binding. The protocol:
as §1

The target of another experiment is T5, M5 (Homo sapiens, UniProt P08912).
T5 sequence (P08912 1-532): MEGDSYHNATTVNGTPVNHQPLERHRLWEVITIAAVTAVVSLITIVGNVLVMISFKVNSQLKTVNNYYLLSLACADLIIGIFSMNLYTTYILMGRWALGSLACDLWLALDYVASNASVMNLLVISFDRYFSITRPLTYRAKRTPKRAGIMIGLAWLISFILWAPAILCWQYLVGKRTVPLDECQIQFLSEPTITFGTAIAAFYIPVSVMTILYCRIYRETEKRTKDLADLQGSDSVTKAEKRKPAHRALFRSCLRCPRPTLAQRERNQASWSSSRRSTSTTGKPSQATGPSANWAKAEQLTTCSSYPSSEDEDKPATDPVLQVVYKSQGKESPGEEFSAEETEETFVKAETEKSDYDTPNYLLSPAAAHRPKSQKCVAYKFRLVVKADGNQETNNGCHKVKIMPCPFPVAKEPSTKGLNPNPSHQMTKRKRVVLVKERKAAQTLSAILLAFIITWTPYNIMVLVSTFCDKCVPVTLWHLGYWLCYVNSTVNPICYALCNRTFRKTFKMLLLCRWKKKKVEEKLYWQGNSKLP
The experiment is described as follows: Muscarinic M5 receptor Ki determination (NIMH PDSP). It is filed as binding. The procedure: as §1

pKi: −log10 of the molar value. Where two headings read alike, the source gives them in different places.

T1 sequence (Q99720 whole entry): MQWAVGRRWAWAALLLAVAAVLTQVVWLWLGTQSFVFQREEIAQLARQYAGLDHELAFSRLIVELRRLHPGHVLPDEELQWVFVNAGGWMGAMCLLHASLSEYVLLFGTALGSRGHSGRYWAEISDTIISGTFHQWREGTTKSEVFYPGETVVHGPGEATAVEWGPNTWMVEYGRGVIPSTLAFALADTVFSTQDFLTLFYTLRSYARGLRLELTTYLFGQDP

Regarding `CN(C)CC1CCOC1(c1ccccc1)c1ccccc1` (stereo not drawn) [ANAVEX 2-73], the pKi (usually the negative decadic logarithm of the Ki, by convention in mol/L) is 6.07 on Sigma1 [1]; 5.48 on M1 [2]; 5.40 on M2 [3]; 5.27 on M3; 5.28 at M4.
Turning to `CN(CCCC1(c2ccc(F)cc2)OCc2cc(C#N)ccc21)C1=NCCCC1` (stereo not drawn) [Example 3, 1-(4-fluorophenyl)-1-{3-[methyl(3,4,5,6-tetrahydropyridin-2-yl)amino]propyl}-1,3-dihydro-2-benzo-furan-5-carbonitrile], the negative-log Ki (pKi) is 6.64 on Sigma1 [4], 5.82 on M1 [5], 5.59 at M2 [6] and 5.93 on M5.
